Data reported in ChEMBL document CHEMBL5365439, “Development of a Selective Peptide κ-Opioid Receptor Antagonist by Late-Stage Functionalization with Cysteine Staples” (J Med Chem, 2023).
Calls of active or inactive are those of the source. The rule behind the calls is not given here. Numbered stars: 1 amine (or outer) side, 2 acyl side, 3 side chain; on linkers, the order of the positions; unused ones are H or OH. Bridge positions count the residues as written; N and C are the ends. Square brackets hold non-standard residues; d marks the D form. Peptide text beside a SMILES is read from it. CH2COCH2 = O=C(C[*:1])C[*:2]; CH2 = C([*:1])[*:2]; Mpa = O=C(O)CCS

Experiments:
[1] = molecular target: Delta-type opioid receptor (Mus musculus) (UniProt P32300); assay: Displacement of [3H]diprenorphine from mouse DOR expressed in HEK293 cell membrane at 10 uM incubated for 1 hr by radioligand displacement assay; format: cell membranes
[2] = molecular target: Mu-type opioid receptor (Mus musculus) (UniProt P42866); assay: Displacement of [3H]diprenorphine from mouse MOR expressed in HEK293 cell membrane at 10 uM incubated for 1 hr by radioligand displacement assay; format: cell membranes
[3] = Stability in human serum assessed as degradation at 3 mg/ml measured after 15 mins by RP-HPLC analysis; format: ADME, cell-free
[4] = molecular target: Kappa-type opioid receptor (Mus musculus) (UniProt P33534); assay: (§1) Antagonist activity at mouse KOR expressed in HEK293 cells coexpressing EGFP/beta-arrestin2 fused NanoLuc assessed as reduction in beta-arrestin2 recruitment at 10 uM preincubated with furimazine for 5 mins followed by peptide addition and measured for 30 mins by BRET assay; format: functional, cell-based
[5] = molecular target: Kappa-type opioid receptor (Mus musculus) (UniProt P33534); assay: Antagonist activity at mouse KOR expressed in HEK293 cells assessed as forskolin-induced adenylyl cyclase-dependent cAMP formation at 10 uM incubated for 30 mins by HTRF analysis; format: functional, cell-based; conditions: filed as antagonist
[6] = molecular target: T1, Kappa-type opioid receptor (Mus musculus, UniProt P33534); assay: Partial agonist activity at mouse KOR expressed in HEK293 cells assessed as inhibition of forskolin-induced adenylyl cyclase-dependent cAMP formation incubated for 30 mins by HTRF analysis; format: functional, cell-based
[7] = molecular target: T1, Kappa-type opioid receptor; assay: Displacement of [3H]diprenorphine from mouse KOR expressed in HEK293 cell membrane assessed as inhibition constant incubated for 1 hr by radioligand displacement assay; format: cell membranes
Mus musculus [8] = assay: In vivo antagonist activity at KOR in CD-1 mouse model of U50,488 induced acute thermal nociception at 10 mg/kg, sc pretreated for 24 hrs followed by U50,488 stimulation and measured after 30 to 60 mins by radiant heat tail flick assay; format: functional, organism-based; conditions: time lower 24.5 hrs, time upper […]
[9] = molecular target: T1, Kappa-type opioid receptor; assay: Competitive antagonist activity at mouse KOR expressed in HEK293 cells at 0.3 to 10 uM preincubated for 30 mins followed by U50,488 addition and measured after 30 mins by fluorescence based schild regression analysis; format: functional, cell-based; conditions: read-out: pA2 (converted)
[10] = molecular target: Kappa-type opioid receptor (Mus musculus) (UniProt P33534); assay: Antagonist activity at KOR in C57BL/6 mouse DRG neurons assessed as inhibition of U50,488 induced calcium mobilization at 1 to 10 uM preincubated with compound followed by U50,488 addition and measured for 12 mins by single cell calcium microfluorimetry analysis; format: functional, cell-based; conditions: DRG neuron, filed as antagonist, dose 1-10 µM
Mus musculus [11] = assay: In vivo antagonist activity at KOR in CD-1 mouse model assessed as reversal of U50,488 induced motor impairment by measuring increase in latency to fall at 20 mg/kg, sc pretreated for 15 mins followed by U50,488 stimulation and measured at 30 mins by rotarod assay; format: functional, organism-based; conditions: time 45.0 min
Mus musculus [12] = assay: In vivo antagonist activity at KOR in CD-1 mouse model of U50,488 induced acute thermal nociception at 20 mg/kg, sc pretreated for 15 mins followed by U50,488 stimulation and measured after 30 to 60 mins by radiant heat tail flick assay; format: functional, organism-based; conditions: time 45-75 min
[13] = molecular target: Kappa-type opioid receptor (Mus musculus) (UniProt P33534); assay: as §1, with “recruitment by measuring residual BRET signal” for “recruitment”, “assay relative to control” for “assay”; format: functional, cell-based; conditions: filed as antagonist
[14] = molecular target: T1, Kappa-type opioid receptor; assay: Modulation of mouse KOR expressed in HEK293 cells assessed as inhibition of forskolin-induced adenylyl cyclase-dependent cAMP formation incubated for 30 mins by HTRF analysis; format: functional, cell-based

Compound	Activity [1]	Activity [2]	Stability [3]	Activity ([4]; filed as antagonist)	Activity [5]	Ki [7]	Activity [4]	other results
CC[C@H](C)[C@@H]1NC(=O)[C@H](CCCNC(=N)N)NC(=O)[C@H](CCCNC(=N)N)NC(=O)[C@H](CC(C)C)NC(=O)[C@H](Cc2ccccc2)NC(=O)CNC(=O)CNC(=O)[C@H](Cc2ccc(O)cc2)NC(=O)CCSCSC[C@@H](C(=O)N[C@@H](CCCCN)C(=O)N[C@@H](CC(C)C)C(=O)N[C@@H](CCCCN)C(=O)O)NC(=O)[C@H](CCCNC(=N)N)NC1=O ([Mpa]YGGFLRRIRCKLK-OH; linker 1-11 via CH2)	inactive	inactive	Unstable	Active	Active	–	–	–
CC(C)C[C@H](NC(=O)[C@H](CCCCN)NC(=O)[C@@H]1CCCN1C(=O)[C@H](CCCNC(=N)N)NC(=O)[C@@H]1CSCC(=O)CSCCC(=O)N[C@@H](Cc2ccc(O)cc2)C(=O)NCC(=O)NCC(=O)N[C@@H](Cc2ccccc2)C(=O)N[C@@H](CC(C)C)C(=O)N[C@@H](CCCNC(=N)N)C(=O)N[C@@H](CCCNC(=N)N)C(=O)N1)C(=O)N[C@@H](CCCCN)C(=O)O ([Mpa]YGGFLRRCRPKLK-OH; linker 1-9 via CH2COCH2)	inactive	inactive	Unstable	Active	–	91 nM	–	EC50 [6]: 270 nM
Oc1ccc2c3c1O[C@H]1c4[nH]c5c(c4C[C@@]4(O)[C@@H](C2)N(CC2CC2)CC[C@]314)C[C@@]1(O)[C@H]2Cc3ccc(O)c4c3[C@@]1(CCN2CC1CC1)[C@H]5O4	–	–	–	–	–	–	–	Activity (Mus musculus [8]): Active
CC[C@H](C)[C@H](NC(=O)[C@H](CCCN=C(N)N)NC(=O)[C@H](CCCN=C(N)N)NC(=O)[C@H](CC(C)C)NC(=O)[C@H](Cc1ccccc1)NC(=O)CNC(=O)CNC(=O)[C@@H](N)Cc1ccc(O)cc1)C(=O)N[C@@H](CCCN=C(N)N)C(=O)N1CCC[C@H]1C(=O)N[C@@H](CCCCN)C(=O)N[C@@H](CC(C)C)C(=O)N[C@@H](CCCCN)C(N)=O	–	–	Unstable	–	–	–	inactive	–
CC(C)C[C@H](NC(=O)[C@H](CCCCN)NC(=O)[C@@H]1CCCN1C(=O)[C@H](CCCNC(=N)N)NC(=O)[C@@H]1CSCSCCC(=O)N[C@@H](Cc2ccc(O)cc2)C(=O)NCC(=O)NCC(=O)N[C@@H](Cc2ccccc2)C(=O)N[C@@H](CC(C)C)C(=O)N[C@@H](CCCNC(=N)N)C(=O)N[C@@H](CCCNC(=N)N)C(=O)N1)C(=O)N[C@@H](CCCCN)C(N)=O ([Mpa]YGGFLRRCRPKLK-NH2; linker 1-9 via CH2)	inactive	inactive	–	–	Active	6.8 nM	–	Kb [9]: 31.6 nM; Activity [10]: Active; Activity (Mus musculus [11]): Active; Activity (Mus musculus [12]): Active; Activity [13]: 5%
CC(C)C[C@H](NC(=O)[C@H](CCCCN)NC(=O)[C@@H]1CCCN1C(=O)[C@H](CCCNC(=N)N)NC(=O)[C@@H]1CSSCCC(=O)N[C@@H](Cc2ccc(O)cc2)C(=O)NCC(=O)NCC(=O)N[C@@H](Cc2ccccc2)C(=O)N[C@@H](CC(C)C)C(=O)N[C@@H](CCCNC(=N)N)C(=O)N[C@@H](CCCNC(=N)N)C(=O)N1)C(=O)N[C@@H](CCCCN)C(=O)O ([Mpa]YGGFLRRCRPKLK-OH; disulfide 1-9)	–	–	–	–	–	–	inactive	–
CC(C)C[C@H](NC(=O)[C@H](CCCCN)NC(=O)[C@@H]1CCCN1C(=O)[C@H](CCCNC(=N)N)NC(=O)[C@@H]1CSCSCCC(=O)N[C@@H](Cc2ccc(O)cc2)C(=O)NCC(=O)NCC(=O)N[C@@H](Cc2ccccc2)C(=O)N[C@@H](CC(C)C)C(=O)N[C@@H](CCCNC(=N)N)C(=O)N[C@@H](CCCNC(=N)N)C(=O)N1)C(=O)N[C@@H](CCCCN)C(=O)O ([Mpa]YGGFLRRCRPKLK-OH; linker 1-9 via CH2)	inactive	inactive	Unstable	Active	Active	77 nM	–	–
CC[C@H](C)[C@@H]1NC(=O)[C@H](CCCNC(=N)N)NC(=O)[C@H](CCCNC(=N)N)NC(=O)[C@H](CC(C)C)NC(=O)[C@H](Cc2ccccc2)NC(=O)CNC(=O)CNC(=O)[C@H](Cc2ccc(O)cc2)NC(=O)CCSCC(=O)CSC[C@@H](C(=O)N[C@@H](CCCCN)C(=O)N[C@@H](CC(C)C)C(=O)N[C@@H](CCCCN)C(=O)O)NC(=O)[C@H](CCCNC(=N)N)NC1=O ([Mpa]YGGFLRRIRCKLK-OH; linker 1-11 via CH2COCH2)	–	–	–	–	–	–	inactive	–
CC[C@H](C)[C@@H]1NC(=O)[C@H](CCCNC(=N)N)NC(=O)[C@H](CCCNC(=N)N)NC(=O)[C@H](CC(C)C)NC(=O)[C@H](Cc2ccccc2)NC(=O)CNC(=O)CNC(=O)[C@H](Cc2ccc(O)cc2)NC(=O)CCSCSC[C@@H](C(=O)N[C@@H](CCCCN)C(=O)N[C@@H](CC(C)C)C(=O)N[C@@H](CCCCN)C(N)=O)NC(=O)[C@H](CCCNC(=N)N)NC1=O ([Mpa]YGGFLRRIRCKLK-NH2; linker 1-11 via CH2)	inactive	inactive	–	–	–	–	–	–
CC(C)C[C@H](NC(=O)[C@H](CCCCN)NC(=O)[C@@H]1CCCN1C(=O)[C@H](CCCNC(=N)N)NC(=O)[C@@H]1CSCC(=O)CSCCC(=O)N[C@@H](Cc2ccc(O)cc2)C(=O)NCC(=O)NCC(=O)N[C@@H](Cc2ccccc2)C(=O)N[C@@H](CC(C)C)C(=O)N[C@@H](CCCNC(=N)N)C(=O)N[C@@H](CCCNC(=N)N)C(=O)N1)C(=O)N[C@@H](CCCCN)C(N)=O ([Mpa]YGGFLRRCRPKLK-NH2; linker 1-9 via CH2COCH2)	inactive	inactive	–	–	–	32 nM	–	EC50 [14]: 740 nM; Activity [13]: 25%
